In the assay the test system is Human Umbilical Vein Endothelial cells. The experiment in a line: HUVEC proliferation assay (VEGF). The format is cell-based. The conditions noted are these: VEGF-stimulated HUVEC proliferation. The method, then: Human Umbilical Vein Endothelial cells are purchased from Clonetics, Inc., as cryopreserved cells harvested from a pool of donors. These cells, at passage 1, are thawed and expanded in EBM-2 complete medium, until passage 2 or 3. The cells are trypsinized, washed in DMEM+10% FBS+antibiotics, and spun at 1000 rpm for 10 min. Prior to centrifugation of the cells, a small amount is collected for a cell count. After centrifugation, the medium is discarded, and the cells are resuspended in the appropriate volume of DMEM+10% FBS+antibiotics to achieve a concentration of 3×10^5 cells/mL. Another cell count is performed to confirm the cell concentration. The cells are diluted to 3×10^4 cells/mL in DMEM+10% FBS+antibiotics, and 100 μL of cells are added to a 96-well plate. The cells are incubated at 37° C. for 22 h.
Prior to the completion of the incubation period, compound dilutions are prepared. Five-point, five-fold serial dilutions are prepared in DMSO, at concentrations 400-fold greater than the final concentrations desired. 2.5 μL of each compound dilution are diluted further in a total of 1 mL DMEM+10% FBS+antibiotics (400× dilution). Medium containing 0.25% DMSO is also prepared for the 0 μM compound sample. At the 22 h timepoint, the medium is removed from the cells, and 100 μL of each compound dilution is added. The cells are incubated at 37° C. for 2-3 h.
During the compound pre-incubation period, the growth factors are diluted to the appropriate concentrations. Solutions of DMEM+10% FBS+antibiotics, containing either VEGF or bFGF at the following concentrations: 50, 10, 2, 0.4, 0.08, and 0 ng/mL are prepared. For the compound-treated cells, solutions of VEGF at 550 ng/mL or bFGF at 220 ng/mL for 50 ng/mL or 20 ng/mL final concentrations, respectively, are prepared since 10 μL of each will be added to the cells (110 μL final volume). At the appropriate time after adding the compounds, the growth factors are added. VEGF is added to one set of plates, while bFGF is added to another set of plates. For the growth factor control curves, the media on wells B4-G6 of plates 1 and 2 are replaced with media containing VEGF or bFGF at the varying concentrations (50-0 ng/mL). The cells are incubated at 37° C. for an additional 72 h.
At the completion of the 72 h incubation period, the medium is removed, and the cells are washed twice with PBS. After the second wash with PBS, the plates are tapped gently to remove excess PBS, and the cells are placed at −70° C. for at least 30 min. The cells are thawed and analyzed using the CyQuant fluorescent dye (Molecular Probes C-7026), following the manufacturer's recommendations. The plates are read on a Victor/Wallac 1420 workstation at 485 nm/530 nm (excitation/emission). Raw data is collected and analyzed using a 4-parameter fit equation in XLFit. IC50 values are then determined.

A value given as a limit tells only on which side of the number the result lay.

In the case of `CNc1cc(N(C)C(=O)Nc2cc(C(=O)Nc3ccc(C(C)C)c(C)c3)ccc2C)ncn1` [Example 19], the concentration for half-maximal inhibition (IC50) is under 5 µM.
The molecule `CNc1cc(N(C)C(=O)Nc2cc(C(=O)Nc3ccc4c(c3)N(C(C)=O)CC4(C)C)ccc2C)ncn1` [Example 21, N-(1-acetyl-3,3-dimethyl-2,3-dihydro-1H-indol-6-yl)-4-methyl-3-(((methyl(6-(methylamino)-4-pyrimidinyl)amino)carbonyl)amino)benzamide] registered a 50% inhibitory concentration (IC50) of under 5 µM.
On to `Cc1ccc(C(=O)Nc2cccc(C(C)C)c2)cc1NC(=O)N(CCCN1CCOCC1)c1ccncn1` [Example 22, 4-methyl-N-(3-(1-methylethyl)phenyl)-3-((((3-(4-morpholinyl)propyl)(4-pyrimidinyl)amino)carbonyl)amino)benzamide], for which the concentration for half-maximal inhibition (IC50) was under 5 µM.
For the molecule `CNc1cc(N(C)C(=O)Nc2cc(C(=O)Nc3cccc(N(C)C)c3)ccc2C)ncn1` [Example 26, N-(3-(dimethylamino)phenyl)-4-methyl-3-((methyl(6-(methylamino)-4-pyrimidinyl)amino)carbonylamino)benzamide], the half-maximal inhibitory concentration (IC50) was under 5 µM.
Take `CNc1ncnc(N(C)C(=O)Nc2cc(C(=O)Nc3ccc(C(C)(C)C)cc3)ccc2C)n1` [Example 27, N-(4-1,1-(dimethylethyl)phenyl)-4-methyl-3-(((methyl(4-(methylamino)-1,3,5-triazin-2-yl)amino)carbonyl)amino)benzamide]: the IC50 was under 5 µM.
To `CNc1ncnc(N(C)C(=O)Nc2cc(C(=O)Nc3cccc(N(C)C)c3)ccc2C)n1` [Example 28] belongs under 5 µM.
In the case of `CNc1nccc(N(CCCN2CCOCC2)C(=O)Nc2cc(C(=O)Nc3cccc(C(C)C)c3)ccc2C)n1` [Example 29, 4-methyl-3-((((2-(methylamino)-4-pyrimidinyl) (3-(4-morpholinyl)propyl)amino)carbonyl)amino)-N-(3-(1-methylethyl)phenyl)benzamide], the concentration for half-maximal inhibition (IC50) was under 5 µM.
The molecule `CNc1cc(N(C)C(=O)Nc2cc(C(=O)Nc3ccc4sc(C)nc4c3)ccc2C)ncn1` [Example 33, 4-methyl-N-(2-methyl-1,3-benzothiazol-5-yl)-3-(((methyl(6-(methylamino)-4-pyrimidinyl)amino)carbonyl)amino)benzamide] showed a half-inhibitory concentration (IC50) of under 5 µM.
For `CNc1cc(N(C)C(=O)Nc2cc(C(=O)Nc3cc(C(F)(F)F)ccc3OCCN3CCCC3)ccc2C)ncn1` [Example 34, 4-methyl-3-(((methyl(6-(methylamino)-4-pyrimidinyl)amino)carbonyl)amino)-N-(2-((2-(1-pyrrolidinyl)ethyl)oxy)-5-(trifluoromethyl)phenyl)benzamide], the 50% inhibitory concentration (IC50) was under 5 µM.
The result for `CNc1ncnc(N(C)C(=O)Nc2cc(C(=O)Nc3ccc4sc(C)nc4c3)ccc2C)n1` [Example 35, 4-methyl-N-(2-methyl-1,3-benzothiazol-5-yl)-3-(((methyl(4-(methylamino)-1,3,5-triazin-2-yl)amino)carbonyl)amino)benzamide] reads under 5 µM.
Molecule `CNc1ncnc(N(C)C(=O)Nc2cc(C(=O)Nc3cc(OC)cc(C(F)(F)F)c3)ccc2C)n1` [Example 36, 4-methyl-3-(((methyl(4-(methylamino)-1,3,5-triazin-2-yl)amino)carbonyl)amino)-N-(3-(methyloxy)-5-(trifluoromethyl)phenyl)benzamide] had an IC50 of under 5 µM.
For the molecule `CNc1ncnc(N(C)C(=O)Nc2cc(C(=O)Nc3cccc(C(F)(F)F)c3C)ccc2C)n1` [Example 37, 4-methyl-3-(((methyl(4-(methylamino)-1,3,5-triazin-2-yl)amino)carbonyl)amino)-N-(2-methyl-3-(trifluoromethyl)phenyl)benzamide], the IC50 is under 5 µM.
`CNc1ncnc(N(C)C(=O)Nc2cc(C(=O)Nc3ccc(C(C)C)c(C)c3)ccc2C)n1` [Example 38, 4-methyl-3-(((methyl(4-(methylamino)-1,3,5-triazin-2-yl)amino)carbonyl)amino)-N-(3-methyl-4-(1-methylethyl)phenyl)benzamide] displayed a 50% inhibitory concentration (IC50) of under 5 µM.
On to `CNc1ncnc(N(C)C(=O)Nc2cc(C(=O)Nc3cccc(-c4ccccc4)c3)ccc2C)n1` [Example 39, N-(1,1′-biphenyl-3-yl)-4-methyl-3-(((methyl(4-(methylamino)-1,3,5-triazin-2-yl)amino)carbonyl)amino)benzamide], for which the concentration for half-maximal inhibition (IC50) is under 5 µM.
`CNc1cc(N(C)C(=O)Nc2cc(C(=O)Nc3ccc(Cl)cc3)ccc2C)ncn1` [Example 40, N-(4-chlorophenyl)-4-methyl-3-(((methyl(6-(methylamino)-4-pyrimidinyl)amino)carbonyl)amino)benzamide] yielded an IC50 of under 5 µM.
`CNc1cc(N(C)C(=O)Nc2cc(C(=O)Nc3ccccc3)ccc2C)ncn1` [Example 41, 4-methyl-3-(((methyl(6-(methylamino)-4-pyrimidinyl)amino)carbonyl)amino)-N-phenylbenzamide] registered a concentration for half-maximal inhibition (IC50) of under 5 µM.
Molecule `CCCCNC(=O)c1ccc(C)c(NC(=O)N(C)c2cc(NC)ncn2)c1` [Example 42, N-butyl-4-methyl-3-(((methyl(6-(methylamino)-4-pyrimidinyl)amino)carbonyl)amino)benzamide] came in with an IC50 of under 5 µM.
To `CNc1cc(N(C)C(=O)Nc2cc(C(=O)Nc3cc(C4CCCCC4)ccc3OC)ccc2C)ncn1` [Example 43, N-(5-cyclohexyl-2-(methyloxy)phenyl)-4-methyl-3-(((methyl(6-(methylamino)-4-pyrimidinyl)amino)carbonyl)amino)benzamide] belongs under 5 µM.
`CNc1ncnc(N(C)C(=O)Nc2cc(C(=O)Nc3ccccc3)ccc2C)n1` [Example 44, 4-methyl-3-(((methyl(4-(methylamino)-1,3,5-triazon-2-yl)amino)carbonyl)amino)-N-phenylbenzamide] had an IC50 of under 5 µM.
`CNc1cc(N(C)C(=O)Nc2cc(C(=O)NCc3ccccc3)ccc2C)ncn1` [Example 45, 4-methyl-3-(((methyl(6-(methylamino)-4-pyrimidinyl)amino)carbonyl)amino)-N-(phenylmethyl) benzamide] displayed a concentration for half-maximal inhibition (IC50) of under 5 µM.
For `COc1ccc(C2CCCCC2)cc1NC(=O)c1ccc(C)c(NC(=O)N(CCCN2CCOCC2)c2ccncn2)c1` [Example 46, N-(5-cyclohexyl-2-(methyloxy)phenyl)-4-methyl-3-((((3-(4-morpholinyl)propyl)(4-pyrimidinyl)amino)carbonyl)amino)benzamide], the IC50 was under 5 µM.
In the case of `CNc1ncnc(N(C)C(=O)Nc2cc(C(=O)Nc3ccc(Cl)cc3)ccc2C)n1` [Example 47, N-(4-chlorophenyl)-4-methyl-3-(((methyl(4-(methylamino)-1,3,5-triazin-2-yl)amino)carbonyl)amino) benzamide], the IC50 is under 5 µM.
The result for `CCCCNC(=O)c1ccc(C)c(NC(=O)N(C)c2ncnc(NC)n2)c1` [Example 48, N-butyl-4-methyl-3-(((methyl(4-(methylamino)-1,3,5-triazin-2-yl)amino)carbonyl)amino)benzamide] reads under 5 µM; that for `CNc1ncnc(N(C)C(=O)Nc2cc(C(=O)NCc3ccccc3)ccc2C)n1` [Example 49, 4-methyl-3-(((methyl(4-(methylamino)-1,3,5-triazin-2-yl)amino)carbonyl)amino)-N-(phenylmethyl) benzamide], under 5 µM; that for `CNc1nccc(N(CCCN2CCOCC2)C(=O)Nc2cc(C(=O)Nc3cc(C4CCCCC4)ccc3OC)ccc2C)n1` [Example 50, N-(5-cyclohexyl-2-(methyloxy)phenyl)-4-methyl-3-((((2-(methylamino)-4-pyrimidinyl)(3-(4-morpholinyl)propyl)amino)carbonyl)amino) benzamide], under 5 µM.
To `CNC(=O)c1cc(N(C)C(=O)Nc2cc(C(=O)N3CCCc4ccc(C(F)(F)F)cc43)ccc2C)ccn1` [Example 71, N-methyl-4-(methyl(((2-methyl-5-((7-(trifluoromethyl)-3,4-dihydro-1(2H)-quinolinyl)carbonyl)phenyl)amino)carbonyl)amino)-2-pyridinecarboxamide] belongs under 5 µM.

The values are drawn from US20070049592A1, “Bis-aryl urea compounds and methods of use” (priority 2005, published 2007).
